The numbers were not newly measured in patent US8067598B2, “Heterofused piperidines as orexin antagonists” (Hoffman-La Roche Inc., priority 2007, dated 2011), which cites them from elsewhere.

No end group written: not given here.

For the data set, the system named is rat. To be noted: icv administration (Piper et al., 2000); cited from earlier work.

“OX-A: orexin-A/hypocretin1 hypothalamic neuropeptide, 33 amino acids; agonist of OX1R and OX2R (QPLPDCCRQKTCSCRLYELLHGAGNHAAGILTL; ends and bridges not checked; cysteine pairing not given here; UniProt O43612 34-66, looked up)”: the “reduction of total REM sleep” value was 84%.
